# Experimental data published in patent US9784753B2, “Biological system to test in vitro if a substance is immune reactive” (priority 1996, dated 2017).
# What was measured:
# [1] = test system: frozen whole blood stimulated with LPS; experiment: Modulation of LPS-stimulated IL-1 release in frozen whole blood; format: cell-based, human; conditions: depending on amount of substance administered; FIGS. 2 and 3
# Description: Citrated blood from healthy donors was mixed with 10% dimethylsulfoxide (Merck, Darmstadt) immediately after it was drawn. Aliquots of 100 microliters were distributed in 2 milliliter reaction vessels (Eppendorf, Hamburg) and transferred to a −70° C. cold box in a commercial freezing system (a person, Nalgene). Thawing was done in a thermoshaker (Eppendorf, Hamburg) at 37° C. Immediately after thawing, 900 microliters of RPMI 1640 (Gibco, Eggenstein), warmed to 37° C., was added. Then the test substances, such as dilutions of a pyrogen, in this case, lipopolysaccharide of Salmonella abortus equi (Sigma, Deisenhofen) were added. After a four-hour incubation at 37° C., for example, in an incubator (Heraeus, Fellbach) with 5% carbon dioxide the incubated samples are shaken and centrifuged. Endogenous pyrogens, IL-1β in this case, are determined in the cell-free supernatant, after freezing, if desired. […] IL-1β was determined by ELISA (enzyme-linked immunosorbent assay) from antibodies from the company Pharmingen (Hamburg).
# [2] = test system: cryopreserved blood from four healthy donors; experiment: IL-1β release in thawed cryopreserved whole blood on contact with pyrogen (ELISA); format: cell-based, human; conditions: thawed deep-frozen citrated blood with 10% dimethylsulfoxide, diluted with RPMI 1640, four-hour incubation at 37° C., FIG. 1
# Description: Citrated blood from healthy donors was mixed with 10% dimethylsulfoxide (Merck, Darmstadt) immediately after it was drawn. Aliquots of 100 microliters were distributed in 2 milliliter reaction vessels (Eppendorf, Hamburg) and transferred to a −70° C. cold box in a commercial freezing system (Mr. Freezy, Nalgene). Thawing was done in a thermoshaker (Eppendorf, Hamburg) at 37° C. Immediately after thawing, 900 microliters of RPMI 1640 (Gibco, Eggenstein), warmed to 37° C., was added. Then the test substances, such as dilutions of a pyrogen, in this case, lipopolysaccharide of Salmonella abortus equi (Sigma, Deisenhofen) were added. After a four-hour incubation at 37° C., for example, in an incubator (Heraeus, Fellbach) with 5% carbon dioxide the incubated samples are shaken and centrifuged. Endogenous pyrogens, IL-1β in this case, are determined in the cell-free supernatant, after freezing, if desired. […] IL-1β was determined by ELISA (enzyme-linked immunosorbent assay) from antibodies from the company Pharmingen (Hamburg).
Compound,release of IL-1 in frozen whole blood stimulated with LPS [1],release of endogenous pyrogens (IL-1β) [2]
Cn1cnc([N+](=O)[O-])c1Sc1ncnc2[nH]cnc12 [azathioprin],dependence of release of IL-1,
lipopolysaccharide of Salmonella abortus equi,,release of endogenous pyrogens in the presence of minimal amounts of pyrogens
